We go through 28 compounds from patent US20110172433A1, “NOVEL IMINO DERIVATIVES, METHODS FOR PRODUCING THE SAME AND INSECTICIDES CONTAINING THE SAME” (priority 2008, published 2011).

For assay [1], the system named is cotton aphid, green peach aphid, greenhouse whitefly, two-spotted spider mite. Particulars: in vivo.
In the next assay the test system is greenhouse whitefly. Description: Greenhouse whitefly controlling effect (cucumber dip). Conditions: wettable powder per Formulation Example 2, active ingredient 100 μg/ml, 25° C., after 120 hours. Format: in vivo, Trialeurodes vaporariorum.

On to `CCC(C)OC(=O)N=C1SCCN1Cc1ccc(Cl)nc1` (stereo not shown) [Compound 130], for which the pest controlling effects entry in assay [1] is on record as “excellent pest controlling effects”.
Same read-out and setting: the same measure for `O=C(N=C1SCCN1Cc1ccc(Cl)nc1)C(F)F` [Compound 76]: “excellent pest controlling effects”.
Still for that read-out and setting: next, `O=C(N=C1SCCN1Cc1ccc(Cl)nc1)OCCF` [Compound 114]: “excellent pest controlling effects”.
Still for that read-out and setting: the same measure for `O=C(N=C1SCCN1Cc1ccc(Cl)nc1)C1CC1` [Compound 92]: “excellent pest controlling effects”.
Regarding `O=C(N=C1SCCN1Cc1ccc(Cl)nc1)OCC1CCOC1` (stereo not shown) [Compound 144], the pest controlling effects entry in assay [1] is “excellent pest controlling effects”.
Still for that read-out and setting: the same measure for `O=C(N=C1SCCN1Cc1ccc(Cl)nc1)OCC(F)F` [Compound 115]: “excellent pest controlling effects”.
`COCC(=O)N=C1SCCN1Cc1ccc(Cl)nc1` [Compound 78]: in assay [1], the pest controlling effects entry is “excellent pest controlling effects”.
Regarding `O=C(N=C1SCCN1Cc1ccc(Cl)nc1)OC1CCOCC1` [Compound 146], the pest controlling effects result in assay [1] is “excellent pest controlling effects”.
`O=C(N=C1SCCN1Cc1ccc(Cl)nc1)OCCCF` [Compound 122]: the pest controlling effects entry in assay [1] is given as “excellent pest controlling effects”.
On the same count and under the same terms, the same measure for `C=CCOC(=O)N=C1SCCN1Cc1ccc(Cl)nc1` [Compound 126]: “excellent pest controlling effects”; for `CONC(=O)N=C1SCCN1Cc1ccc(Cl)nc1` [Compound 106]: “excellent pest controlling effects”.
Take `CSCCC(=O)N=C1SCCN1Cc1ccc(Cl)nc1` [Compound 90]: the pest controlling effects entry in assay [1] is given as “excellent pest controlling effects”.
Still for that read-out and setting: the same measure for `O=C(CCl)N=C1SCCN1Cc1ccc(Cl)nc1` [Compound 73]: “excellent pest controlling effects”.
On the same count and under the same terms, the same measure for `O=C(N=C1SCCN1Cc1ccc(Cl)nc1)C(Cl)(Cl)Cl` [Compound 5]: “excellent pest controlling effects”; for `CC(C)COC(=O)N=C1SCCN1Cc1ccc(Cl)nc1` [Compound 129]: “excellent pest controlling effects”; for `CCCCOC(=O)N=C1SCCN1Cc1ccc(Cl)nc1` [Compound 128]: “excellent pest controlling effects”.
Still for that read-out and setting: next, `CSCCOC(=O)N=C1SCCN1Cc1ccc(Cl)nc1` [Compound 119]: “excellent pest controlling effects”.
In the case of `CCCCCOC(=O)N=C1SCCN1Cc1ccc(Cl)nc1` [Compound 136], in assay [1], the pest controlling effects entry is “excellent pest controlling effects”.
With `CCOC(=O)N=C1SCCN1Cc1ccc(Cl)nc1` [Compound 113], the pest controlling effects entry in assay [1] is given as “excellent pest controlling effects”.
Same read-out and setting: next, `CC(=O)N=C1SCCN1Cc1ccc(Cl)nc1` [Compound 72]: “excellent pest controlling effects”; `O=C(N=C1SCCN1Cc1ccc(Cl)nc1)C1CC1(F)F` (stereo not shown) [Compound 103]: “excellent pest controlling effects”.
In the case of `CC(C)=CCOC(=O)N=C1SCCN1Cc1ccc(Cl)nc1` [Compound 135], in assay [1], the pest controlling effects result is “excellent pest controlling effects”.
As for `CC(C)OC(=O)N=C1SCCN1Cc1ccc(Cl)nc1` [Compound 44], the pest controlling effects entry in assay [1] is reported as “excellent pest controlling effects”.
Still for that read-out and setting: next, `CCCOC(=O)N=C1SCCN1Cc1ccc(Cl)nc1` [Compound 43]: “excellent pest controlling effects”.
The same measure, in the same setting: the same measure for `O=C(N=C1SCCN1Cc1ccc(Cl)nc1)OCCCl` [Compound 45]: “excellent pest controlling effects”; for `O=C(N=C1SCCN1Cc1ccc(Cl)nc1)OCC1CC1` [Compound 139]: “excellent pest controlling effects”.
Regarding `O=C(/N=C1\SCCN1Cc1ccc(Cl)nc1)C(F)(F)F` [Formula (12)], the lethality in the assay on greenhouse whitefly turned out to be 25%.
For `COCCOC(=O)N=C1SCCN1Cc1ccc(Cl)nc1` [Compound 118], the pest controlling effects entry in assay [1] was “excellent pest controlling effects”.
